# PMC6471621, “Evaluation of the Anti-Trypanosomal Activity of Vietnamese Essential Oils, with Emphasis on Curcuma longa L. and Its Components” (Molecules, 2019)
# Read-outs that look alike come from different tables or passages of the source.
# Assays:
# [1] = Cytotoxicity assay (MTT) on J774; format: cell-based, murine; details: mouse
# Protocol: (§1) The human non-cancer fibroblast cell line WI38 (ATCC Number CCL-75 – Standards, UK) and macrophage-like murine cell line J774 (ECACC Number 91051511 – Public Health England, UK) were grown in DMEM and RPMI medium (Gibco-Thermo Fisher Scientific, Merelbeke, Belgium or Sigma-Aldrich, Bornem, Belgium), respectively, supplemented with 10% fetal bovine serum and penicillin-streptomycin (100 UI/mL) (Sigma-Aldrich, Bornem, Belgium).
# (§2) The cytotoxicity assays were performed as described previously with concentrations ranging from 50 to 1.40 nL/mL (dilution of 1.67). The selectivity index (SI) values were calculated using the formula:SI = IC50 on mammalian cells/IC50 on protozoan parasites
# [2] = Cytotoxicity assay (MTT) on WI38; format: cell-based; details: human
# Protocol: as §1, §2
# [3] = tested on: Trypanosoma brucei brucei (Tbb, strain 427) bloodstream form; experiment: Anti-trypanosomal assay (alamar blue, 72 h) on Tbb bloodstream form; format: cell-based; details: for IC50: Trypanosoma brucei, Tbb bloodstream form
# Protocol: Trypanosoma brucei brucei, although not infecting humans because of its susceptibility to the innate immune system, has been used as a good predictive model in a first screening for the identification of anti-trypanosomal compounds [52, 53]. Bloodstream forms of this parasite (Tbb, strain 427) were grown in HMI-9 medium (IMDM-Gibco-Thermo Fisher Scientific, Merelbeke, Belgium-supplemented with 10% heat-inactivated fetal bovine serum (Sigma-Aldrich, Bornem, Belgium) and bloodstream form supporting factors).
# The assay was performed in 96-well plates as previously described. The primary screening was repeated two times in triplicate at the concentrations of 50 nL/mL and 25 nL/mL (for 33 EOs) or 10 nL/mL and 5 nL/mL (for 4 EOs). Fifty µL of parasite culture (5 x 10^4 parasites/mL) was added with 50 µL of diluted EOs in each well. Ten µL of alamar blue (diluted with PBS at the ratio 1:1) was added to each well after 72 h of incubation and the plates were further incubated for 4 h. The fluorescence of the reduced reagent was measured on a spectrophotometer at 530 nm excitation and 590 nm emission wavelengths. Suramin was used as positive control. The EOs that inhibited more than 50% of the parasite growth at 25 or 10 nL/mL were analyzed for IC50 determination. Samples were tested in eight serial three-fold dilutions ranging from 50–0.02 nL/mL, except Cinnamomum cassia EO, Curcuma zedoaria EO, and Zingiber zerumbet EO (ranging from 10–0.005 nL/mL) and Dysphania ambrosioides EO (ranging from 5–0.002 nL/mL) in duplicate. IC50 values were calculated from dose response growth inhibition curves using Microsoft Excel files and mean IC50 values were obtained from at least three repetitions.
# Tbb bloodstream form = details: cited from earlier work
# [4] = tested on: different human cancer cells; details: cited from earlier work
# Trypanosoma brucei = details: read-out: Anti-trypanosomal IC50; cited from earlier work
# [5] = tested on: CHO, WI38, Balb/3T3 fibroblast, and J774; design: method as in PMID 24269775, PMID 27529211, PMID 16557466; details: cited from earlier work
# [6] = J774 macrophage-like murine cells, pure compounds of C. longa EO, read-out: Cytotoxicity (IC50) J774
# [7] = WI38 human non-cancer fibroblast cells, pure compounds of C. longa EO, read-out: Cytotoxicity (IC50) WI38
# [8] = in Curcuma longa, pure compounds of C. longa EO, read-out: Anti-Trypanosomal Activity (IC50)
# [9] = highest tested concentration 50 µg/mL
compound,measurement,setting,value
"CC[C@@]1(O)C(=O)OCc2c1cc1n(c2=O)Cc2cc3ccccc3nc2-1 [Camptothecin, reference compound]",IC50,"[1]; J774 macrophage-like murine cells, positive control, read-out: Cytotoxicity (IC50) J774",0.00732 ± 0.00129 µg/mL
same,IC50,"[2]; WI38 human non-cancer fibroblast cells, positive control, read-out: Cytotoxicity (IC50) WI38",0.035 ± 0.00963 µg/mL
C=C1C=CC(C(C)CC(=O)C=C(C)C)CC1 (stereo not drawn) [Curlone],IC50,[1]; [6],25.1 ± 3.47 µg/mL
same,IC50,[2]; [7],43.6 ± 2.45 µg/mL
same,IC50,[3]; [8],1.38 ± 0.52 µg/mL
same,IC50,[3]; read-out: Anti-trypanosomal IC50,6.32 µM
same,SI compared to cytotoxicity,[3]; compared to cytotoxicity on mammalian cells (WI38 and J774),> 10
CC(C)=C1C/C=C(\C)CC/C=C(\C)CC1=O [Germacrone],Anti-trypanosomal IC50,"Tbb bloodstream form; Tbb bloodstream form, ref 32",> 100 µg/mL
"Cc1ccc(C(=O)Nc2ccc(S(=O)(=O)O)c3cc(S(=O)(=O)O)cc(S(=O)(=O)O)c23)cc1NC(=O)c1cccc(NC(=O)Nc2cccc(C(=O)Nc3cc(C(=O)Nc4ccc(S(=O)(=O)O)c5cc(S(=O)(=O)O)cc(S(=O)(=O)O)c45)ccc3C)c2)c1 [Suramin, reference compound]",IC50,"[3]; positive control, read-out: Anti-Trypanosomal Activity (IC50)",0.0215 ± 0.00262 µg/mL
CC(C)=CCCC(C)c1ccc(C)cc1 (stereo not drawn) [ar-Curcumene],IC50,[1]; [6],24 ± 2.64 µg/mL
same,IC50,[2]; [7],23.1 ± 1.36 µg/mL
same,IC50,[3]; [8],13.4 ± 2.46 µg/mL
CC(C)=CC(=O)CC(C)c1ccc(C)cc1 (stereo not drawn) [ar-Turmerone],IC50,[1],44.6 ± 1.41 µg/mL
same,IC50,[2],43.4 ± 3.89 µg/mL
same,IC50,[3]; [8],28.8 ± 3.93 µg/mL
same,"Apoptotic effects (release of mitochondrial cytochrome c, activation of capase-3)","[4]; at 40, 80, and 120 µg/mL",apoptotic effects
O=C(/C=C/c1ccc(O)cc1)CC(=O)/C=C/c1ccc(O)cc1 [bisdemethoxycurcumin],IC50,Trypanosoma brucei,9.84 ± 0.84 µM
C=C1C2CCC(C2)C1(C)C (stereo not drawn) [camphene],Anti-trypanosomal IC50,"Tbb bloodstream form; Tbb bloodstream form, ref 41",80.66 ± 0.87 µg/mL
CC(C)=CCC[C@@H](C)CC=O [citronellal],Anti-trypanosomal IC50,"Tbb bloodstream form; Tbb bloodstream form, ref 28",2.76 ± 1.55 µg/mL
same,Cytotoxicity at the highest tested concentration,[5]; [9],did not show any cytotoxicity
CC(C)=CCCC(C)CCO (stereo not drawn) [citronellol],Anti-trypanosomal IC50,"Tbb bloodstream form; Tbb bloodstream form, ref 28",6.45 ± 4.86 µg/mL
same,Cytotoxicity at the highest tested concentration,[5]; [9],did not show any cytotoxicity
COc1cc(/C=C/C(=O)CC(=O)/C=C/c2ccc(O)c(OC)c2)ccc1O [curcumin],IC50,Trypanosoma brucei,~5 µM
COc1cc(/C=C/C(O)=C/C(=O)/C=C/c2ccc(O)cc2)ccc1O [demethoxycurcumin],IC50,Trypanosoma brucei,7.19 ± 1.02 µM
CC12CCC(CC1)C(C)(C)O2 [eucalyptol],Anti-trypanosomal IC50,Tbb bloodstream form; Tbb,83.15 µg/mL
C=C(C)[C@H]1CC=C(C)CC1 [limonene],Anti-trypanosomal IC50,"Tbb bloodstream form; Tbb bloodstream form, ref 28",4.24 ± 1.27 µg/mL
same,Anti-trypanosomal IC50,"Tbb bloodstream form; Tbb bloodstream form, ref 29",5.6 ± 1.6 µg/mL
C=CC(C)(O)CCC=C(C)C (stereo not drawn) [linalool],Anti-trypanosomal IC50,"Tbb bloodstream form; Tbb bloodstream form, ref 30",2.5 µg/mL
same,Cytotoxicity at the highest tested concentration,[5]; highest tested concentration 100 µg/mL,did not show any cytotoxicity
C=C1C=CC(C(C)CCC=C(C)C)CC1 (stereo not drawn) [β-Sesquiphellandrene],IC50,[1]; [6],21 ± 2.72 µg/mL
same,IC50,[2]; [7],19.1 ± 1.58 µg/mL
same,IC50,[3]; [8],9.89 ± 1.18 µg/mL
same,"Apoptotic effects (release of mitochondrial cytochrome c, activation of capase-3)",[4]; at 5.10 µg/mL,apoptotic effects
